Reference: patent publication US11337990B2, “Human milk oligosaccharides to promote growth of beneficial bacteria” (ABBOTT LABORATORIES, priority 2010, dated 2022)
Entries after “also recorded” stand apart in the source; their conditions may differ.

How the values were obtained:
[1] = tested on: Caco-2 cells; test: Alkaline phosphatase activity per milligram of protein (cell differentiation), Caco-2; format: cell-based, human; settings: Example 48: LNnT or 2′FL 20, 200, 2000 mg/L; 6′SL 40, 400, 4000 mg/mL; 72 hours
Description: In a second experiment, Caco-2 cells, which model more mature epithelial cells of the small intestine, are incubated in a humidified atmosphere of 5% carbon dioxide at 37° C. in the presence of LNnT or 2′FL at concentrations of 0 mg/L (“0”), 20 mg/L (“20”), 200 mg/L (“200”), and 2000 mg/L (“2000”) or in the presence of 6′SL at concentrations of 0 mg/mL (“0”), 40 mg/mL (“40”), 400 mg/mL (“400”), and 4000 mg/mL (“4000”) for 72 hours. The culture medium utilized is Dulbecco's Modified Eagle Medium (Life Technologies, Foster City Calif.) supplemented with 10% fetal calf serum and 2 mM glutamine. The controls (“energy”) consist of 91.5 mg lactose and 64.2 mg N-acetyllactosamine/L for LNnT; 133 mg lactose and 67 mg fucose/L for 2′FL; and 195 mg lactose and 205 mg sialic acid/L for 6′SL. The impact of the LNnT, 2′FL, and 6′SL at various levels and the control on Caco-2 cell proliferation is measured using a conventional BrdU assay, which measures the number of cells that have recently synthesized DNA. […] Additionally, the impact of LNnT, 2′FL, and 6′SL at various levels and the controls on the alkaline phosphatase activity per milligram of protein for Caco-2 cells, which is an indication of cell differentiation, is measured.

[2] = tested on: Bifidobacterium spp.; test: qPCR of bacterial populations in in vitro fecal fermentation; format: cell-based; settings: overall, 0-12 h fermentation
[3] = tested on: B. breve ATCC 15700; test: Bacterial growth assay (OD600); format: cell-based, Bifidobacterium breve; settings: 1% carbohydrate in sMRS+cysteine
Description: Coy Laboratory Products, Grass Lake, Mich.). Subsequently, the cultures are passed twice on a semi-synthetic MRS medium ([…] which is supplemented with 1% (w/v) filter-sterilized glucose as the sole carbohydrate source. […] For bifidobacteria strains, the same procedure is followed except all media are supplemented with 0.5 g/l L-cysteine/HCl. […] After the 2nd pass in sMRS+glucose+cysteine, the cultures are washed once with 10 mL of sterile sMRS+cysteine (no carbohydrate), resuspended in 10 ml of sterile sMRS+cysteine (no carbohydrate) and then used as a 1% inoculum. The carbohydrates are sterilized with a 0.22 micron filter and used at a 1% final concentration. Cell growth is performed in 250 μL of sMRS+cysteine covered with 50 μL of mineral oil in a Bioscreen 100-well Honeycomb plate. […] The plate reader is operated in discontinuous mode, with absorbance readings performed in 30-minute intervals, and preceded by 30-second shaking intervals at maximum speed. Controls consist of inoculated medium lacking carbohydrate. […] Maximum OD is determined by inspection of the corrected growth data. OD is determined by subtracting the initial corrected OD (time point 0) from the maximum corrected OD. Samples are grown in biologically independent triplicates and the resulting growth kinetic data are expressed as the mean of these replicates. […]

[4] = tested on: HT-29 cells; test: Alkaline phosphatase activity per milligram of protein (cell differentiation), HT-29; format: cell-based, human; settings: Example 48: LNnT or 2′FL 20, 200, 2000 mg/L; 6′SL 40, 400; 72 hours
Description: In a first experiment, HT-29 cells, which model the immature epithelial cells of the small intestine, are incubated in a humidified atmosphere of 5% carbon dioxide at 37° C. in the presence of LNnT or 2′FL at concentrations of 0 mg/L (“0”), 20 mg/L (“20”), 200 mg/L (“200”), and 2000 mg/L (“2000”) or in the presence of 6′SL at concentrations of 0 mg/mL (“0”), 40 mg/mL (“40”), 400 mg/mL (“400”), and 4000 mg/mL (“4000”) for 72 hours. The culture medium utilized is Dulbecco's Modified Eagle Medium (Life Technologies, Foster City Calif.) supplemented with 10% fetal calf serum and 2 mM glutamine. The controls (“energy”) consist of 91.5 mg lactose and 64.2 mg N-acetyllactosamine/L for LNnT; 133 mg lactose and 67 mg fucose/L for 2′FL; and 195 mg lactose and 205 mg/L sialic acid for 6′SL. The impact of the LNnT, 2′FL, and 6′SL at various levels and the controls on HT-29 cell proliferation is measured using a conventional BrdU assay, which measures the number of cells that have recently synthesized DNA. […] Additionally, the impact of LNnT, 2′FL, and 6′SL at various levels and the controls on the alkaline phosphatase activity per milligram of protein for HT-29 cells, which is an indicator of cell differentiation, is measured.

[5] = tested on: bifidobacteria strains; test: Bacterial growth assay (OD600), panel of 12 strains; format: cell-based, Bifidobacterium; settings: 1% carbohydrate in sMRS+cysteine
Description: Coy Laboratory Products, Grass Lake, Mich.). Subsequently, the cultures are passed twice on a semi-synthetic MRS medium ([…] which is supplemented with 1% (w/v) filter-sterilized glucose as the sole carbohydrate source. […] For bifidobacteria strains, the same procedure is followed except all media are supplemented with 0.5 g/l L-cysteine/HCl. [table] After the 2nd pass in sMRS+glucose+cysteine, the cultures are washed once with 10 mL of sterile sMRS+cysteine (no carbohydrate), resuspended in 10 ml of sterile sMRS+cysteine (no carbohydrate) and then used as a 1% inoculum. The carbohydrates are sterilized with a 0.22 micron filter and used at a 1% final concentration. Cell growth is performed in 250 μL of sMRS+cysteine covered with 50 μL of mineral oil in a Bioscreen 100-well Honeycomb plate. […] The plate reader is operated in discontinuous mode, with absorbance readings performed in 30-minute intervals, and preceded by 30-second shaking intervals at maximum speed. Controls consist of inoculated medium lacking carbohydrate. […] All three plates include a positive control (glucose) and negative control (no carbohydrate). The OD600 data for each carbohydrate is corrected by subtracting the OD600 of the basal media (sMRS)+cysteine from the sample plate for each probiotic. Maximum OD is determined by inspection of the corrected growth data. OD is determined by subtracting the initial corrected OD (time point 0) from the maximum corrected OD. Samples are grown in biologically independent triplicates and the resulting growth kinetic data are expressed as the mean of these replicates. For the growth curve plots, OD600 vs. time is first plotted for the bacteria grown on medium lacking carbohydrate (sMRS). For all other carbohydrates, the OD600 data is corrected by subtracting the OD600 of sMRS.

With `CC(=O)N[C@H]1[C@H](O[C@H]2[C@@H](O)[C@@H](CO)O[C@@H](O[C@H]3[C@H](O)[C@@H](O)C(O)O[C@@H]3CO)[C@@H]2O)O[C@H](CO)[C@@H](O[C@@H]2O[C@H](CO)[C@H](O)[C@H](O)[C@H]2O)[C@@H]1O` (mixture of isomers) [LNnT, Lacto-N-neotetraose] the “alkaline phosphatase activity per milligram of protein (cell differentiation)” value [1] was “trend toward an increase”, the bifidobacteria populations [2] was “may also be bifidogenic; also recorded: tended to generally increase bifidobacteria levels” and the “growth / ability to ferment (OD600)” value [3] was “grow well”. For the same molecule, the “alkaline phosphatase activity per milligram of protein (cell differentiation)” value [4] was “trend toward an increase” and the “growth / ability to ferment (OD600)” value [5] was “B. breve ATCC 15700, B. infantis ATCC 15697 and B. infantis M-63 are able to ferment”.
